Experimental data reported in patent publication US20230107941A1, “HEPATITIS B CAPSID ASSEMBLY MODULATORS” (Venatorx Pharmaceuticals, Inc., priority 2019, published 2023).
Like-named read-outs stand apart in the source and are kept apart here.

Assays:
[1] = In vitro cytotoxicity assay (MTT cell viability) in HepG2 cells; format: cell-based, human; details: human
Experimental: To evaluate antiviral selectivity, the cytotoxic activity of each compound was determined using a standard cell viability assay performed on the parental HepG2 cell line. Cell viability was determined by measuring the conversion of 3-(4,5-dimethylthiazol-2-yl)-2,5-diphenyltetrazolium bromide (MTT) to the insoluble formazan salt crystal that occurs in live cells. Briefly, HepG2 cells were seeded in 96-well plates at a density of 20,000 cells per well in […] (complete growth medium) and allowed to adhere overnight in a 37° C., […] humidified incubator. The next day, test agents were prepared by performing 8 half-log10 serial dilutions in 100% DMSO at 200× the final desired concentration in the assay. Compounds were tested over a range of concentrations from 30 μM to 1.0 nM in the assay. HepG2 cells were incubated in the presence of various concentrations of CAMs for 7 days in a 37° C., […] humidified incubator. At the completion of the 7-day incubation period, MTT reagent was added to each well and the mixture was incubated for an additional 3-4 hours. At the completion of the incubation period, all wells were aspirated to remove the culture medium. The formazan crystals were solubilized from the cell monolayers with 100% DMSO. Plates were briefly mixed on an orbital shaker and absorbance was measured at 492 nm using a Perkin-Elmer EnVision multi-label plate reader. All absorbance values were converted to a percentage of the signal obtained from the vehicle treated controls. Absorbance values at 492 nm are directly proportional to the number of viable cells present in the sample. A CC50 value (cytotoxic concentration that results in loss of 50% cell viability) was calculated from the dose-response curve by 4-parameter, non-linear regression analysis using the GraphPad Prism software. The positive control compound, staurosporine, reduced the viability of HepG2 cells in a dose-dependent manner (CC50=100 nM).

HBV = assay: In vitro antiviral assay: anti-HBV replication in HepAD38 cells (extracellular HBV DNA by QPCR); format: cell-based, hepatitis B virus (genotype D, serotype ayw); details: 7 days incubation, extracellular HBV DNA by QPCR, read-out: Anti-HBV EC50
Experimental: The anti-HBV activity of the Capsid Assembly Modulators (CAMs) was evaluated in a cell based assay utilizing the human hepatoma cell line HepAD38 (Ladner, S K., et al., 1998). HepAD38 cells were derived from the parental line, HepG2, that were stably transfected with a construct containing an HBV genome (genotype D, serotype ayw) under the control of a tetracycline repressible CMV promoter. Upon removal of tetracycline, viral pre-genomic RNA (pgRNA) and mRNAs are expressed and infectious viral particles are assembled and secreted into the culture medium providing a reliable, robust system to measure multiple steps of the HBV life cycle. Disruption of capsid formation results in reduced levels of DNA-containing virus particles that are released into the culture supernatant. To quantify the effect of CAMs on HBV replication, we developed a sensitive QPCR-based assay that measures extracellular HBV DNA levels upon treatment of HepAD38 cells with various concentrations of test compounds.
HepAD38 cells were maintained in DMEM/F12 medium containing 10% FBS, 400 μg/mL G418 and 0.3 μg/mL tetracycline (tet+ media) to maintain repression of HBV replication. To evaluate each compound, HepAD38 cells were seeded into 24-well collagen coated culture plates (Corning BioCoat) at a density of 200,000 cells per well in 1 mL of medium without tetracycline (tet-media) and allowed to adhere overnight at 37° C., 5% CO2 in a humidified incubator. The following day, media was refreshed and a dose range of each compound was prepared by performing 1 log10 serial dilutions in 100% DMSO at 200× the desired assay concentration. Dilutions were then added to the cells resulting in a final dose range of 1 μM to 10 pM and the plates were returned to the incubator. Following 7 days of incubation, culture supernatants were harvested and HBV DNA levels were evaluated by QPCR and compared to the vehicle treated control wells (i.e. DMSO alone).
To quantify HBV DNA levels, cell culture supernatants were diluted 1:10 in sterile, nuclease-free water (Gibco). The diluted supernatants were subsequently added to a PCR master mix containing 1× Roche Light Cycler Master Mix, 0.5 μM forward primer, 0.5 μM reverse primer (Fwd: 5′-[…] (SEQ ID NO 1); Rev: 5′-[…] (SEQ ID NO 2)), 0.2 μM Roche Universal Probe Library Probe 25. The volume was brought to 20 μL with nuclease-free water and amplification of the HBV target sequence was performed using a Roche LightCycler 480 QPCR instrument. PCR extended out to 45 cycles with each cycle consisting of a denaturation step at 95° C. for 10 sec., followed by an annealing step at 60° C. for 10 sec. and a brief extension step at 72° C. for 1 sec.
Extracellular HBV DNA levels, expressed in copies/mL, were determined by comparison to a standard curve (10^2-10^9 copies/mL) using the Roche LightCycler analysis software. These values were subsequently converted to percent inhibition of HBV replication by dividing the HBV DNA levels in the experimental samples with those obtained from the vehicle control (˜1-2×10^5 copies/mL). Potency, expressed as an EC50 (the effective concentration required to inhibit 50% of HBV replication), was calculated from the dose-response curve using a 4-parameter non-linear regression analysis (GraphPad Prism). The nucleoside analog inhibitor entecavir was used as a positive control to validate each assay run. The EC50 value of entecavir in the HepAD38 assay was 0.5 nM, as previously reported in the literature.

[2] = Hepatitis B virus, HePAD38, 168 h

| Compound | CC50 at 7 days [1] | EC50 (HBV; [2]) | EC50 (HBV) |
| --- | --- | --- | --- |
| CCc1c(C(=O)Nc2ccc(F)c(C)c2)c(C)c(C(=O)C(=O)N[C@H]2CC[C@@H](O)CC2)n1C [Example 108, 2-ethyl-N-(4-fluoro-3-methylphenyl)-5-(2-(((1s,4s)-4-hydroxycyclohexyl)amino)-2-oxoacetyl)-1,4-dimethyl-1H-pyrrole-3-carboxamide] | 5 to 30 µM | < 0.05 µM | – |
| Cc1cc(NC(=O)c2c(C)c(C(=O)C(=O)NC3(C)CC(OP(=O)(O)O)C3)n(C)c2C)ccc1F (stereo not drawn) [Example 63, (1s,3s)-3-(2-(4-((4-fluoro-3-methylphenyl)carbamoyl)-1,3,5-trimethyl-1H-pyrrol-2-yl)-2-oxoacetamido)-3-methylcyclobutyl dihydrogen phosphate] | > 30 µM | – | > 1 µM |
| Cc1c(C(=O)Nc2ccc(F)c(C3CC3)c2)c(C)n(C)c1C(=O)C(=O)N[C@]1(C)CC[C@@H](O)CC1 [Example 136, N-(3-cyclopropyl-4-fluorophenyl)-5-(2-(((1r,4r)-4-hydroxy-1-methylcyclohexyl)amino)-2-oxoacetyl)-1,2,4-trimethyl-1H-pyrrole-3-carboxamide] | > 30 µM | < 0.05 µM | – |
| CC(=O)N1CC[C@@H](NC(=O)C(=O)c2c(C)c(C(=O)Nc3ccc(F)c(C)c3)c(C)n2C)C[C@H]1C [Example 165, 5-(2-(((2R,4R)-1-acetyl-2-methylpiperidin-4-yl)amino)-2-oxoacetyl)-N-(4-fluoro-3-methylphenyl)-1,2,4-trimethyl-1H-pyrrole-3-carboxamide] | > 30 µM | < 0.05 µM | – |
| Cc1cc(NC(=O)c2c(C)c(C(=O)C(=O)N[C@]3(C)C[C@H](O)C3)n(C)c2-c2ccncc2)ccc1F [Example 161, N-(4-fluoro-3-methylphenyl)-5-(2-(((1s,3s)-3-hydroxy-1-methylcyclobutyl)amino)-2-oxoacetyl)-1,4-dimethyl-2-(pyridin-4-yl)-1H-pyrrole-3-carboxamide] | > 30 µM | > 1 µM | – |
| Cc1cc(NC(=O)c2c(C)c(C(=O)C(=O)N[C@H]3CC[C@@H](OCC(=O)NCCOCCOCCOCCOCCOCCOCCOCCNC(=O)CCCCC4SCC5NC(=O)NC54)CC3)n(C)c2C)ccc1F (stereo partly drawn) [Example 121, 5-(2-(((1s,4s)-4-((2,28-dioxo-32-(2-oxohexahydro-1H-thieno[3,4-d]imidazol-4-yl)-6,9,12,15,18,21,24-heptaoxa-3,27-diazadotriacontyl)oxy)cyclohexyl)amino)-2-oxoacetyl)-N-(4-fluoro-3-methylphenyl)-1,2,4-trimethyl-1H-pyrrole-3-carboxamide] | > 30 µM | > 1 µM | – |
| Cc1cc(NC(=O)c2c(C)c(C(=O)C(=O)NC3(C)CCN(C(=O)N4CCOCC4)CC3)n(C)c2C)ccc1F [Example 36, N-(4-fluoro-3-methylphenyl)-1,2,4-trimethyl-5-(2-((4-methyl-1-(morpholine-4-carbonyl)piperidin-4-yl)amino)-2-oxoacetyl)-1H-pyrrole-3-carboxamide] | > 30 µM | < 0.05 µM | – |
| Cc1cc(NC(=O)c2c(C)c(C(=O)C(=O)N[C@H]3CC[C@@H](S(C)(=O)=O)CC3)n(C)c2-c2ccccn2)ccc1F [Example 156, N-(4-fluoro-3-methylphenyl)-1,4-dimethyl-5-(2-(((1s,4s)-4-(methylsulfonyl)cyclohexyl)amino)-2-oxoacetyl)-2-(pyridin-2-yl)-1H-pyrrole-3-carboxamide] | > 30 µM | > 1 µM | – |
| Cc1cc(NC(=O)c2c(C)c(C(=O)C(=O)N[C@H]3CC[C@H](S(C)(=O)=O)CC3)n(C)c2C)ccc1F [Example 8, N-(4-fluoro-3-methylphenyl)-1,2,4-trimethyl-5-(2-(((1r,4r)-4-(methylsulfonyl)cyclohexyl)amino)-2-oxoacetyl)-1H-pyrrole-3-carboxamide] | 5 to 30 µM | < 0.05 µM | – |
